US20170042193A1, “Pet Food Compositions Having Antimicrobial Activity” (priority 2010, published 2017)
Where two headings read alike, the source gives them in different places.

What was measured:
Format in all cases: cell-based
[1] = tested on: Salmonella (S. aarhus, S. muenster E1 & S. worthington)
Excerpt: This test is typically used for antibiotic sensitivity in bacteria and was adapted to measure Salmonella growth suppression by ingredients with potential antimicrobial (AMI) activity. Discs of filter paper, approximately 5 mm in diameter, were soaked in an AMI at 1%, 2%, and 3%, except for oregano, which was soaked at 0.1%, 0.2% and 0.4% solution and placed on a Petri dish with standard methods agar with tetraphenyltetrazolium (TTC) that has been smeared with a standardized suspension of Salmonella (S. aarhus, S. muenster E1 & S. worthington). Efficacy of the AMI was validated by measuring how closely the Salmonella cultures grew with respect to the saturated filter paper.
Ingredients were screened for antimicrobial activity using the Disc Diffusion Test. Solutions of 1%, 2%, and 3% were prepared for each of these ingredients, except for oregano, which was prepared at 0.1%, 0.2%, and 0.4%. Soaking of the disks, placing them on a Standard Methods agar plate with TTC smeared with Salmonella and overnight incubation were done as discussed above. Efficacy of these ingredients was determined by measuring the clear zones (mm) around the disks (Table 2).

[2] = tested on: Salmonella (S. aarhus, S. muenster E1 and S. worthington); design: key to Salmonella growth or inhibition (MIC test): −: negative sign means inhibition; +: positive sign denotes growth
Method: The minimum inhibitory concentration (MIC) of an antimicrobial ingredient is defined as the maximum dilution of the product that will still inhibit the growth of Salmonella. Serial dilutions (0-3%, except for oregano 0-0.3%) were made of the AMI in bacterial growth media and poured in test tubes. The test organisms (S. aarhus, S. muenster E1 and S. worthington) were then added to the dilutions of the AMI ingredients to a final concentration of 10^6 or 10^3 cfu/g, incubated overnight at 30° C., and scored for growth by turbidity or plate counts.
Minimum Inhibitory Concentration was conducted for 10^3 and 10^6 cfu/g Salmonella. Results reported as negative sign means inhibition, while positive sign denotes growth.

[3] = tested on: Salmonella (S. aarhus, S. muenster E1 & S. worthington); settings: for inhibition of Salmonella, clear zone around the kibbles: coated kibbles, overnight at 30° C.; for Zone of Inhibition-Diameter, Mean / Zone of Inhibition-Diameter, REP I Plate 1 / Zone of Inhibition-Diameter, REP I Plate 2 / Zone of Inhibition-Diameter, REP II Plate 1 / Zone of Inhibition-Diameter, REP II Plate 2 / Zone of Inhibition-Diameter, REP III Plate 1 / Zone of Inhibition-Diameter, REP III Plate 2: kibble coated
Method: The kibble diffusion test has similar principles as the disk diffusion method. […] […] Efficacy of the AMI was validated by measuring how closely the Salmonella cultures grew with respect to the saturated kibbles.
Commercial canine and feline adult pet food compositions in the form of kibbles were coated with potential AMIs. […] After incubation overnight at 30° C., plates were analyzed for presence of clear zones around the kibbles.

O=P(O)(O)O [Inorganic Acid (Phosphoric acid), Phosphoric Acid]
clear zone around disk, Partial ([1]; R 1 (*3 replicates)): 9.33 mm | clear zone around disk, Total ([1]; R 1 (*3 replicates)): 16.67 mm | clear zone around disk, Partial ([1]; R 2): 14.33 mm | clear zone around disk, Total ([1]; R 2): 24.0 mm | clear zone around disk, Partial ([1]; R 3): 21.0 mm | clear zone around disk, Total ([1]; R 3): 28.33 mm | Antimicrobial activity against Salmonella, decreasing order ([1]; order printed: Phosphoric acid>Phenols, pH 4.25-4.85>Oleoresin Oregano>92% Sodium Lactate and 6% Sodium Diacetate>Phenols, pH 4.8-6.0): Antimicrobial activity against Salmonella was observed | Salmonella growth or inhibition (MIC test) ([2]; 10^3 cfu/g Salmonella, antimicrobial level 0.03%): + | Salmonella growth or inhibition (MIC test) ([2]; 10^3 cfu/g Salmonella, antimicrobial level 0.15%): + | Salmonella growth or inhibition (MIC test) ([2]; 10^3 cfu/g Salmonella, antimicrobial level 0.3%): + | Salmonella growth or inhibition (MIC test) ([2]; 10^3 cfu/g Salmonella, antimicrobial level 0.9%): − | Salmonella growth or inhibition (MIC test) ([2]; 10^3 cfu/g Salmonella, antimicrobial level 1.5%): − | Salmonella growth or inhibition (MIC test) ([2]; 10^3 cfu/g Salmonella, antimicrobial level 2.1%): − | Salmonella growth or inhibition (MIC test) ([2]; 10^3 cfu/g Salmonella, antimicrobial level 3%): − | Salmonella growth or inhibition (MIC test) ([2]; 10^3 cfu/g Salmonella, antimicrobial level […]): − | Salmonella growth or inhibition (MIC test) ([2]; 10^6 cfu/g Salmonella, antimicrobial level 0.03%): + | Salmonella growth or inhibition (MIC test) ([2]; 10^6 cfu/g Salmonella, antimicrobial level 0.15%): + | Salmonella growth or inhibition (MIC test) ([2]; 10^6 cfu/g Salmonella, antimicrobial level 0.3%): + | Salmonella growth or inhibition (MIC test) ([2]; 10^6 cfu/g Salmonella, antimicrobial level 0.9%): − | Salmonella growth or inhibition (MIC test) ([2]; 10^6 cfu/g Salmonella, antimicrobial level 1.5%): − | Salmonella growth or inhibition (MIC test) ([2]; 10^6 cfu/g Salmonella, antimicrobial level 2.1%): − | Salmonella growth or inhibition (MIC test) ([2]; 10^6 cfu/g Salmonella, antimicrobial level 3%): − | Salmonella growth or inhibition (MIC test) ([2]; 10^6 cfu/g Salmonella, antimicrobial level […]): − | inhibition of Salmonella, clear zone around the kibbles [3]: inhibited Salmonella | Zone of Inhibition-Diameter, Mean ([3]; 3%): 8 mm | Zone of Inhibition-Diameter, REP I Plate 1 ([3]; 3%): 9 mm | Zone of Inhibition-Diameter, REP I Plate 2 ([3]; 3%): 7 mm | Zone of Inhibition-Diameter, REP II Plate 1 ([3]; 3%): 7 mm | Zone of Inhibition-Diameter, REP II Plate 2 ([3]; 3%): 9 mm | Zone of Inhibition-Diameter, REP III Plate 1 ([3]; 3%): 9 mm | Zone of Inhibition-Diameter, REP III Plate 2 ([3]; 3%): 7 mm

CCC(=O)[O-].CCC(=O)[O-].[Ca+2] [Ca propionate liquid, Ca propionate]
inhibition of Salmonella, clear zone around the kibbles [3]: inhibited Salmonella | Zone of Inhibition-Diameter, Mean ([3]; 1% solution): 9 mm | Zone of Inhibition-Diameter, REP I Plate 1 ([3]; 1% solution): 5 mm | Zone of Inhibition-Diameter, REP I Plate 2 ([3]; 1% solution): 16 mm | Zone of Inhibition-Diameter, REP II Plate 1 ([3]; 1% solution): 4 mm | Zone of Inhibition-Diameter, REP II Plate 2 ([3]; 1% solution): 9 mm | Zone of Inhibition-Diameter, REP III Plate 1 ([3]; 1% solution): 9 mm | Zone of Inhibition-Diameter, REP III Plate 2 ([3]; 1% solution): 9 mm | Zone of Inhibition-Diameter, Mean ([3]; 2% solution): 17 mm | Zone of Inhibition-Diameter, REP I Plate 1 ([3]; 2% solution): 19 mm | Zone of Inhibition-Diameter, REP I Plate 2 ([3]; 2% solution): 14 mm | Zone of Inhibition-Diameter, REP II Plate 1 ([3]; 2% solution): 18 mm | Zone of Inhibition-Diameter, REP II Plate 2 ([3]; 2% solution): 19 mm | Zone of Inhibition-Diameter, REP III Plate 1 ([3]; 2% solution): 16 mm | Zone of Inhibition-Diameter, REP III Plate 2 ([3]; 2% solution): 14 mm | Zone of Inhibition-Diameter, Mean ([3]; 3% solution): 21 mm | Zone of Inhibition-Diameter, REP I Plate 1 ([3]; 3% solution): 20 mm | Zone of Inhibition-Diameter, REP I Plate 2 ([3]; 3% solution): 15 mm | Zone of Inhibition-Diameter, REP II Plate 1 ([3]; 3% solution): 19 mm | Zone of Inhibition-Diameter, REP II Plate 2 ([3]; 3% solution): 25 mm | Zone of Inhibition-Diameter, REP III Plate 1 ([3]; 3% solution): 24 mm | Zone of Inhibition-Diameter, REP III Plate 2 ([3]; 3% solution): 25 mm
